Results published in PubChem BioAssay (NCI).
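Each compound was tested at five concentrations against cells in 96-well plates for 48 hours. The concentration for 50% growth inhibition is given as GI50. TGI marks complete inhibition of growth.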

What was measured:
Assay in all cases: DTP human tumour cell line panel, 48 h
SK-OV-3 ovarian = system: SK-OV-3 ovarian
OVCAR-4 ovarian = system: OVCAR-4 ovarian
HOP-62 NSCLC = system: HOP-62 NSCLC
SN12C renal = system: SN12C renal
U251 CNS = system: U251 CNS
NCI-H23 lung = system: NCI-H23 lung
SF-295 CNS = system: SF-295 CNS
RPMI-8226 leukemia = system: RPMI-8226 leukemia
HOP-92 NSCLC = system: HOP-92 NSCLC
UACC-62 melanoma = system: UACC-62 melanoma
OVCAR-8 ovarian = system: OVCAR-8 ovarian
UACC-257 melanoma = system: UACC-257 melanoma
K-562 leukemia = system: K-562 leukemia

Row | Compound | TGI (SK-OV-3 ovarian) [µM] | TGI (OVCAR-4 ovarian) [µM] | TGI (HOP-62 NSCLC) [µM] | TGI (SN12C renal) [µM] | TGI (U251 CNS) [µM] | TGI (NCI-H23 lung) [µM] | TGI (SF-295 CNS) [µM] | TGI (RPMI-8226 leukemia) [µM] | TGI (HOP-92 NSCLC) [µM] | TGI (UACC-62 melanoma) [µM] | TGI (OVCAR-8 ovarian) [µM] | TGI (UACC-257 melanoma) [µM] | TGI (K-562 leukemia) [µM] | GI50 (SK-OV-3 ovarian) [µM] | GI50 (HOP-62 NSCLC) [µM] | GI50 (SN12C renal) [µM] | GI50 (NCI-H23 lung) [µM] | GI50 (SF-295 CNS) [µM] | GI50 (RPMI-8226 leukemia) [µM] | GI50 (UACC-257 melanoma) [µM]
1 | OCC(O)COc1ccc(Br)cc1 (centres undefined) | > 100 | > 100 | > 100 | > 100 | > 100 | > 100 | > 100 | > 100 | > 100 | > 100 | > 100 | > 100 | > 100 | – | – | – | – | – | – | –
2 | Cc1ccc(OP2(=O)Oc3ccc4ccccc4c3CN2c2ccc(Cl)cc2)cc1C (centres undefined) | > 100 | > 100 | > 100 | > 100 | > 100 | > 100 | > 100 | > 100 | > 100 | > 100 | > 100 | > 100 | > 100 | – | – | – | – | – | – | –
3 | COc1ccc(C(=O)C2CC3(CCC2(O)c2ccc(OC)cc2)CC(=O)Nc2ccccc2C3=O)cc1 (centres undefined) | > 100 | 39.9 | > 100 | > 100 | > 100 | > 100 | > 100 | – | > 100 | > 100 | > 100 | > 100 | > 100 | – | – | – | – | – | – | –
4 | CO/C(=N\N=C(/C)C(F)(F)F)c1ccncc1 | > 100 | > 100 | > 100 | > 100 | > 100 | > 100 | – | > 100 | > 100 | > 100 | > 100 | – | > 100 | – | – | – | – | – | – | –
5 | CCOc1ncn(-c2ccc(NC(=S)Nc3cccc(O)c3)cc2)n1 | > 100 | > 100 | > 100 | > 100 | > 100 | > 100 | > 100 | > 100 | > 100 | > 100 | > 100 | > 100 | > 100 | – | – | – | – | – | – | –
6 | ClCCN(CCCl)Cc1ccc(Nc2ccnc3cc(Cl)ccc23)cc1 | 4.52 | – | 5.16 | 4.02 | – | 4.52 | 6.98 | 5.41 | – | – | – | 5.71 | – | 1.44 | 1.34 | 0.48 | 1.33 | 2.08 | 1.72 | 1.9
7 | COc1ccc2c(O)c3[n+](cc2c1OC)CCc1cc2c(cc1-3)OCO2 | > 100 | > 100 | > 100 | > 100 | > 100 | > 100 | > 100 | > 100 | > 100 | > 100 | > 100 | > 100 | > 100 | – | – | – | – | – | – | –
